Like-named read-outs stand apart in the source and are kept apart here.
Key:
[1] = system: thyroglobulin (tg:mCherry reporter gene); assay: animal or person; conditions: for EC50: read-out: EC50 (tg:mCherry induction)
Experimental: In order to avoid interference of test chemicals with early thyroid gland development, zebrafish embryos were cultured in exposure medium until 48 hours post fertilization (hpf). Subsequently, they were exposed to seven known thyroid endocrine disrupters for 3 days (48 to 120 hpf). The non-goitrogenic compound 3,4-dichloroaniline, that is used as reference compound in the zebrafish acute embryo toxicity test was used as negative control. […] No solvents were used. […] Five concentrations and one control were tested per compound and replicate. In the second replicate the range of concentration was adjusted to improve fitting of concentration-response curves. […] Given the lack of appropriate spectral properties stability of exposure concentrations was not analysed for potassium perchlorate. Embryos were kept in the incubator at 26°C and a 14:10 hours light:dark cycle. The exposure was conducted in crystallisation dishes covered with watchmaker glasses with 30 embryos in 30 ml exposure medium (for exposure medium refer to [26]).
Embryos were positioned ventrally toward the microscope objective. Per embryo a bright field image, an autofocus fluorescence image and a Z-stack of 9 images were obtained. The Z-stack was required in case of autofocus failure and manual selection of the focal plane. Fluorescence images were obtained with 400 ms of fluorescent light exposure at maximal light intensity and a gain of 1. […] However, care was taken, that at least 10 images per concentration and replicates were assessed. To avoid a time bias during the analysis the sequence of wells for analysis was arranged in order to obtain a uniform distribution over the entire period of analysis.
The images were analysed using a KNIME workflow (Version 3.3.3., [29]) with the extension “KNIME image processing”. In brief, images were loaded into the workflow and the background was removed automatically using the “rolling ball” procedure of the image J plugin (rolling ball size set to 50 pixels). Subsequently the area containing the thyroid gland was manually selected by drawing a rectangle around the appropriate region using the interactive annotation node. […] If possible the autofocus images were used. In case that the thyroid gland was out of focus due to the presence of autofluorescing pigment cells, an appropriate image from the Z-stack was selected. All subsequent steps were conducted without any user interaction. […] Finally the sum of pixel (reflecting area of the thyroid gland and intensity of fluorescence) was calculated for the labeled area and used as a proxy of fluorescence intensity (see Fig 1 for an overview of the workflow). For each replicate the sum was of pixels was normalized by setting controls to the value of one. For data of individual embryos see S4 Table. The KNIME workflow used for image analysis is provided as supplement file (S1 Workflow).
To characterize the potency of the investigated goitrogenic compounds, we calculated EC50 values of tg:mcherry fluorescence using the pixel sum obtained from image analysis. For each replicate the fluorescence intensity was normalized by dividing the mean fluorescence intensity of each concentration with the mean control fluorescence intensity. Concentration-response curves of tgmcherry fluorescence were fitted to the data using the Hill-slope equation (Eq 1) and used to estimate EC50 values.
The parameter Min was set to 1 and the slope (p) and the maximum fluorescence (Max) were estimated.

[2] = system: thyroid hormone levels (T4); conditions: cited from earlier work; for EC50: read-out: EC50 T4 reduction
[3] = ref chemspider (http://www.chemspider.com); cited from earlier work
zebrafish embryos = assay: in vivo; conditions: for Slope: mortality concentration-response curve
Experimental: Fish embryo acute toxicity tests were performed similar as described previously, using 10 or 25 embryos per concentration and replicate exposed in crystallization dishes from 48 to 120 hpf. No exchange of exposure media was performed. Lethality was identified by coagulation, missing heartbeat, a non–detached tail and/or missing of somites. Raw data for mortality and phenotypic assessment are provided as S1 Table. Concentration-response curves for mortality are shown in S2 Fig.

[4] = reduction of thyroid hormone levels (immunostaining), ref Thienpont et al. [13]
[5] = 72 hpf, 17777.78 µmol/L, replicate 2, 10 embryos
[6] = 72 hpf, 26666.67 µmol/L, replicate 2, 10 embryos
[7] = 72 hpf, 40000.00 µmol/L, replicate 2, 10 embryos
[8] = 72 hpf, 60000.00 µmol/L, replicate 2, 10 embryos
[9] = 72 hpf, 90000.00 µmol/L, replicate 2, 10 embryos
[10] = 96 hpf, 17777.78 µmol/L, replicate 2, 10 embryos
[11] = 96 hpf, 26666.67 µmol/L, replicate 2, 10 embryos
[12] = 96 hpf, 40000.00 µmol/L, replicate 2, 10 embryos
[13] = 96 hpf, 60000.00 µmol/L, replicate 2, 10 embryos
[14] = 96 hpf, 90000.00 µmol/L, replicate 2, 10 embryos
[15] = 120 hpf, 5625.00 µmol/L, replicate 1, 25 embryos
[16] = 120 hpf, 11250.00 µmol/L, replicate 1, 25 embryos
[17] = 120 hpf, 17777.78 µmol/L, replicate 2, 10 embryos
[18] = 120 hpf, 22500.00 µmol/L, replicate 1, 25 embryos
[19] = 120 hpf, 26666.67 µmol/L, replicate 2, 10 embryos
[20] = 120 hpf, 40000.00 µmol/L, replicate 2, 10 embryos
[21] = 120 hpf, 45000.00 µmol/L, replicate 1, 25 embryos
[22] = 120 hpf, 60000.00 µmol/L, replicate 2, 10 embryos
[23] = 120 hpf, 90000.00 µmol/L, replicate 1, 25 embryos
[24] = 120 hpf, 90000.00 µmol/L, replicate 2, 10 embryos

SMILES: S=C1NCCN1 [Ethylenethiourea, N, N’-ethylenethiourea]
- EC50 ([1]; Danio rerio): 366 µM
- BMD 20 ([1]; zebrafish, in vivo): 246 µM
- Slope ([1]; zebrafish, in vivo): 3.8
- EC50 [2, 4]: 135 µM
- Log D (pH 7.4) [3]: -0.52

SMILES: Oc1cc(O)cc(O)c1 [Phloroglucinol, phloroglucinol]
- EC50 ([1]; Danio rerio): 1100 µM
- BMD 20 ([1]; zebrafish, in vivo): 252 µM
- Slope ([1]; zebrafish, in vivo): 0.89
- EC50 [2, 4]: 2700 µM
- TDI (T4) ([2]; thyroid disruption index based on T4 reduction, ref Thienpont et al. [13]): 32
- Log D (pH 7.4) [3]: 0.24

SMILES: CCCc1cc(=O)[nH]c(=S)[nH]1 [Propylthiouracil, 6-propyl-2-thiouracil]
- EC50 ([1]; Danio rerio): 334 µM
- BMD 20 ([1]; zebrafish, in vivo): 163 µM
- Slope ([1]; zebrafish, in vivo): 1.7
- EC50 ([2]; zebrafish, in vivo): 137 µM
- TDI (T4) ([2]; zebrafish, in vivo): 20

SMILES: c1cn[nH]c1 [Pyrazole, pyrazole]
- No Surviving (zebrafish embryos; [5]): 10
- No hatched (zebrafish embryos; [5]): 0
- No Surviving (zebrafish embryos; [6]): 10
- No hatched (zebrafish embryos; [6]): 0
- No Surviving (zebrafish embryos; [7]): 10
- No hatched (zebrafish embryos; [7]): 0
- Total Sublethal (zebrafish embryos; [7]): 3
- nobc (no blood circulation) (zebrafish embryos; [7]): 3
- No Surviving (zebrafish embryos; [8]): 0
- No hatched (zebrafish embryos; [8]): 0
- nohb (no heartbeat) (zebrafish embryos; [8]): 10
- No Surviving (zebrafish embryos; [9]): 0
- No hatched (zebrafish embryos; [9]): 0
- nohb (no heartbeat) (zebrafish embryos; [9]): 10
- No Surviving (zebrafish embryos; [10]): 10
- No hatched (zebrafish embryos; [10]): 10
- No Surviving (zebrafish embryos; [11]): 10
- No hatched (zebrafish embryos; [11]): 8
- No Surviving (zebrafish embryos; [12]): 10
- No hatched (zebrafish embryos; [12]): 9
- Total Sublethal (zebrafish embryos; [12]): 10
- nomov (no spontaneous movement) (zebrafish embryos; [12]): 10
- No Surviving (zebrafish embryos; [13]): 0
- No hatched (zebrafish embryos; [13]): 0
- k/f (coagulated) (zebrafish embryos; [13]): 5
- nohb (no heartbeat) (zebrafish embryos; [13]): 5
- No Surviving (zebrafish embryos; [14]): 0
- No hatched (zebrafish embryos; [14]): 0
- k/f (coagulated) (zebrafish embryos; [14]): 10
- No Surviving (zebrafish embryos; [15]): 25
- Sublethal effects Total Sublethal (zebrafish embryos; [15]): 1
- No Surviving (zebrafish embryos; [16]): 25
- Sublethal effects Total Sublethal (zebrafish embryos; [16]): 1
- No Surviving (zebrafish embryos; [17]): 10
- No hatched (zebrafish embryos; [17]): 10
- Lethal effects k/f (zebrafish embryos; [18]): 2
- No Surviving (zebrafish embryos; [18]): 23
- Sublethal effects Total Sublethal (zebrafish embryos; [18]): 12
- No Surviving (zebrafish embryos; [19]): 10
- No hatched (zebrafish embryos; [19]): 9
- Sublethal effects Total Sublethal (zebrafish embryos; [19]): 4
- Sublethal effects mch (zebrafish embryos; [19]): 1
- Sublethal effects nomov (zebrafish embryos; [19]): 4
- No Surviving (zebrafish embryos; [20]): 10
- No hatched (zebrafish embryos; [20]): 9
- Sublethal effects EdY / EdP (zebrafish embryos; [20]): 9
- Sublethal effects Total Sublethal (zebrafish embryos; [20]): 10
- Sublethal effects nobc (zebrafish embryos; [20]): 4
- Sublethal effects nomov (zebrafish embryos; [20]): 8
- Lethal effects k/f (zebrafish embryos; [21]): 25
- No Surviving (zebrafish embryos; [21]): 0
- Lethal effects k/f (zebrafish embryos; [22]): 10
- No Surviving (zebrafish embryos; [22]): 0
- No hatched (zebrafish embryos; [22]): 0
- Lethal effects k/f (zebrafish embryos; [23]): 25
- No Surviving (zebrafish embryos; [23]): 0
- Lethal effects k/f (zebrafish embryos; [24]): 10
- No Surviving (zebrafish embryos; [24]): 0
- No hatched (zebrafish embryos; [24]): 0
- LC50 (zebrafish embryos; mortality after 24 h of exposure, S2 Fig, unit inferred): 48.9 mM
- LC50 (zebrafish embryos; mortality after 48 h of exposure, S2 Fig, unit inferred): 48.9 mM
- Slope (zebrafish embryos; 24 h of exposure): 56.2
- Slope (zebrafish embryos; 48 h of exposure): 56.2
- Slope (zebrafish embryos; 72 h of exposure): 132
- LC50 (zebrafish embryos; read-out: LC50 (48–120 hpf), mortality, embryos exposed 48–120 hpf): 42.4 mM
- EC50 ([1]; zebrafish, in vivo): 637 µM
- BMD 20 ([1]; zebrafish, in vivo): 399 µM
- Slope ([1]; zebrafish, in vivo): 5.7
- TDI ([1]; zebrafish, in vivo): 67
- Log D (pH 7.4) [3]: 0.43

From article PMC6114901, “An automated screening method for detecting compounds with goitrogenic activity using transgenic zebrafish embryos” (PLoS ONE, 2018)
